Data on six compounds can be found in patent publication US9962372B2, “Pharmaceutical composition for the treatment of mycosis” (priority 2015, dated 2018).

Read-outs that look alike come from different tables or passages of the source.

One assay deals with C. albicans ATCC® 10231. Put plainly: Broth dilution method: MIC and synergy. The assay is classed as cell-based, Candida albicans. The note with it: for MIC: RPMI-1640, 35° C., 48 h; for MIC in combination with benzydamine: in combination with benzydamine 0.125 mg/ml. As for the experimental part:
(§1) Candida strains stored at −80° C. were thawed and streaked on SDA plate and then a second subculture was performed. Then, Candida strains suspensions were prepared as follows.
(§2) 10 ml of saline were placed in a 50 ml falcon tube with 5 g of glass beads. Loopful of the cells of the colonies of the second subculture were transferred into the saline and suspended by rubbing the loop against the wet wall of the tube to dislodge the cells. The tube was then shacked for 3 minutes using a mechanical shaker.
(§3) The number of cells in the suspension was adjusted from 1.5×10^6 to 5.0×10^6 colony forming units (CFU)/ml using saline according to Mc Farland standard No. 0.5 standard and reading the optical density at 550 nm.
(§4) For counting, serially 1:10 dilutions were prepared using saline, to obtain 10^−4 and 10^−5 dilutions of the suspension. A sample of 100 μl of each dilution was spread plate and incubated at 37° C. for 48 h.
(§5) The methodology used for the broth dilution method was similar to that disclosed in “EUCAST Definitive Document EDef 7.1: method for the determination of broth dilution MICs of antifungal agents for fermentative yeasts” (Clin Microbiol Infect 2008; 14: 398-408).
(§6) Then, serial 1:2 dilutions were prepared in DMSO, to concentrations from 10.0 mg/ml to 0.078 mg/ml. These solutions were further diluted 1:100 in RPMI-1640 (GiBCO® by Life Technologies) containing 2% glucose, 3-(N-morpholino) propanesulfonic acid (MOPS, by SIGMA) without NaHCO3, to final concentration from 100 μg/ml to 0.78 μg/ml.
(§7) Then, serial 1:2 dilutions were prepared in DMSO, to concentrations from 1.250 mg/ml to 0.0196 mg/ml. These solutions were further diluted 1:100 in RPMI-1640 (GiBCO® by Life Technologies) containing 2% glucose, 3-(N-morpholino) propanesulfonic acid (MOPS, by SIGMA) without NaHCO3, to final concentration from 12.50 μg/ml to 0.196 μg/ml.
(§8) Then, serial 1:2 dilutions were prepared in DMSO, to concentrations from 5.0 mg/ml to 0.3125 mg/ml. These solutions were further diluted 1:100 in RPMI-1640 (GiBCO® by Life Technologies) containing 2% glucose, 3-(N-morpholino) propanesulfonic acid (MOPS, by SIGMA) without NaHCO3, to final concentration from 50 μg/ml to 3.125 μg/ml.
(§9) Benzydamine was dissolved in water to a concentration of 25 mg/ml. Then, serial 1:2 dilutions were prepared in water, to concentrations from 25 mg/ml to 3.125 mg/ml. 1 ml of each solution was added to 24 ml (1:25 dilution) of RPMI-1640 (GiBCO® by Life Technologies) containing 2% glucose, 3-(N-morpholino) propanesulfonic acid (MOPS, by SIGMA) without NaHCO3, to final concentration from 1 mg/ml to 0.125 mg/ml.
As positive control Amphotericin B from a stock solution of 1600 μg/ml was diluted in DMSO to solutions having concentrations from 200 μg/ml to 50 μg/ml. These solutions were diluted 1:100 in RPMI-1640 (GiBCO®, by Life Technology) containing 2% glucose, 3-(N-morpholino) propanesulfonic acid (MOPS, by SIGMA) without NaHCO3, to concentrations from 2 μg/ml to 0.5 μg/ml.
(§10) (B) For synergy studies, further solutions of econazole, miconazole, clotrimazole and fluconazole nitrate having concentrations from 100 μg/ml to 0.049 μg/ml were prepared in RPMI-1640 as disclosed in paragraph 1.3.1(A).
(§11) Also, further solutions of benzydamine having concentrations from 1 mg/ml to 0.25 mg/ml were prepared in RPMI-1640 as disclosed in paragraph 1.3.1(A). Moreover, the solution of benzydamine with a concentration of 1 mg/ml was further diluted 1:1.43 with RPMI-1640 to concentration of 0.7 mg/ml.
(§12) Microdilution plates containing wells with a nominal capacity of about 300 μL/well were used.
(§13) The Candida strains suspensions prepared as described in paragraph 1.1 were grown on Sabouraud's agar medium SDA (Oxoid). Colonies were diluted in phosphate-buffered saline (PBS) and suspensions were adjusted to approximately 1-5×10^5 CFU/ml using Mc Farland 0.5 standard and reading the optical density at 550 nm.

For a further assay, the system named is C. tropicalis ATCC® 750. Put plainly: Broth dilution method: MIC and synergy (FIC). Particulars: for MIC: RPMI-1640, 35° C., 48 h; for MIC in combination with benzydamine: in combination with benzydamine 0.175 mg/ml. The assay is classed as cell-based, Candida tropicalis. As to the method: as §1, §2, §3, §4, §5, §6, §7, §8, §9, §10, §11, §12, §13
(§14) (A) For the calculation of the MIC, microdilution plates containing in each well 100 μl of each solution of the active ingredients obtained as described in paragraph 1.3.1(A) were prepared. The wells were then inoculated with 100 μl of Candida strains suspensions obtained as disclosed above containing 1-5×10^5 CFU/ml.

The test system of assay [1] is C. albicans ATCC® MYA-427. Put plainly: Broth dilution method: MIC and synergy. The assay is classed as cell-based, Candida albicans. Particulars: for MIC: Candida albicans, active ingredient alone, RPMI-1640, 35° C., 48 h; for MIC in combination with benzydamine: in combination with benzydamine 0.125 mg/ml. As for the experimental part: as §1, §2, §3, §4, §5, §6, §9, §10, §11, §12, §13, §14
(§15) In each well, the final inoculum density and the final concentration of the active ingredients was half of that used (i.e. the final inoculum density was 0.5-2.5×10^5 CFU/ml, the concentration of econazole and miconazole was from 50 μg/ml to 0.39 μg/ml, the concentration of clotrimazole was from 6.25 μg/ml to 0.098 μg/ml, the concentration of fluconazole was from 50 μg/ml to 3.125 μg/ml and the concentration of benzydamine was from 0.5 mg/ml to 0.0625 mg/ml).
(§16) The microdilution plates were incubated for 48 hours at 35° C.
(§17) (B) For synergy studies, microdilution plates containing in each well 50 μl of each solution of econazole and miconazole and 50 μl of each solution of benzydamine, obtained as disclosed in paragraph 1.3.1(B), were prepared. Then, the wells were inoculated with 100 μl of the 1-5×10^5 CFU/ml Candida suspensions. […]

Assay [2] relates to C. albicans ATCC® MYA-574 fluconazole resistant. As to the kind of experiment: Broth dilution method: MIC and synergy. The assay is classed as cell-based, Candida albicans. Particulars: for MIC: Candida albicans, active ingredient alone, RPMI-1640, 35° C., 48 h. As to the method:
as §1, §2, §3, §4, §5, §6, §9, §10, §11, §12, §13, §14, §15, §16, §17

The subject of assay [3] is C. lusitaniae ATCC® 34449. Put plainly: Agar dilution method: MIC and synergy (FIC). Particulars: for MIC: Clavispora lusitaniae, ATCC34449, active ingredient alone, agar dilution, Sabouraud agar, 35° C., 48 h, complete inhibition of growth. In kind it is cell-based, Candida lusitaniae. As for the experimental part:
Candida strains stored at -80° C. were thawed and streaked on SDA plate and then a second subculture was performed. Then, Candida strains suspensions were prepared as follows. 10 ml of saline were placed in a 50 ml falcon tube with 5 g of glass beads. Loopful of the cells of the colonies of the second subculture were transferred into the saline and suspended by rubbing the loop against the wet wall of the tube to dislodge the cells. The tube was then shacked for 3 minutes using a mechanical shaker. The number of cells in the suspension was adjusted from 1.5×10^6 to 5.0×10^6 colony forming units (CFU)/ml using saline according to Mc Farland standard No. 0.5 standard and reading the optical density at 550 nm. For counting, serially 1:10 dilutions were prepared using saline, to obtain 10^-4 and 10^-5 dilutions of the suspension. A sample of 100 μl of each dilution was spread plate and incubated at 37° C. for 48 h. […] The methodology was similar to that disclosed by R. Moody et al., “In Vitro Activities of Miconazole, Miconazole Nitrate, and Ketoconazole Alone and Combined with Rifampin against Candida spp. and Torulopsis glabrata Recovered from Cancer Patients.”, Antimicrobial Agents and Chemotherapy: 1980, 17, 871-875. Standard Petri dishes (92 mm diameter×16 mm height) were used. After the agar was poured, plates were allowed to cool and then immediately used. […] All the Petri dishes were incubated at 35° C. for 48 h. (B) For synergy studies, the surface of each Petri dish prepared as described in paragraph 1.2.1(B) was inoculated with four spots (20 μl inoculum volume) of the Candida strains suspensions prepared as described in paragraph 1.1, and incubated at 35° C. for 48 hours. The lowest concentration of drug that produced a complete inhibition of growth for a certain Candida strain was regarded as the minimal inhibitory concentration (MIC) for said strain. […] The synergistic effect of the combinations comprising benzydamine and econazole nitrate was evaluated by calculating the fractional inhibitory concentration (FIC), in accordance with […]. et al. in Antimicrobial Agents and Chemotherapy, February 2010, p. 602-609. […] FIC[combination b+e]=[…]] is the fractional inhibitory concentration of benzydamine with respect to a specific Candida strain, calculated as the ratio between the MIC of benzydamine in the presence of a sub-MIC amount of econazole (MIC(b+e)) and the MIC of benzydamine alone (MIC(b)), as follows: FIC[e] is the fractional inhibitory concentration of econazole with respect to a specific Candida strain, calculated as the ratio between the MIC of econazole in the presence of a sub-MIC amount of benzydamine (MIC(e+b)) and the MIC of econazole alone (MIC(e)), as follows: […]

Setting [4] is: Candida albicans, ATCC10231, active ingredient alone, read-out: MIC.
[5] abbreviates: Candida tropicalis, ATCC750, active ingredient alone, read-out: MIC.

Consider `C[C@@H]1[C@H](O)[C@@H](C)/C=C/C=C/C=C/C=C/C=C/C=C/C=C/[C@H](O[C@@H]2O[C@H](C)[C@@H](O)[C@H](N)[C@@H]2O)C[C@@H]2O[C@](O)(C[C@@H](O)C[C@@H](O)[C@H](O)CC[C@@H](O)C[C@@H](O)CC(=O)O[C@H]1C)C[C@H](O)[C@H]2C(=O)O` [Amphotericin B], for which the MIC with C. albicans ATCC® 10231 (active ingredient alone) came to 0.5 µg/mL.
Take `CN(C)CCCOc1nn(Cc2ccccc2)c2ccccc12` [Benzydamine]: the MIC (in the assay with C. albicans ATCC® 10231 (setting [4]); with C. tropicalis ATCC® 750 (setting [5]); in assay [1]; in assay [2]; in assay [3]) was 500 µg/mL throughout. The “MIC of benzydamine in combination with econazole” value in assay [2] (in combination with econazole) was 125 µg/mL. Moreover, the “MIC of benzydamine in combination with miconazole” value in assay [2] (in combination with miconazole) came to 62.5 µg/mL. In addition, the “FIC[b] (fractional inhibitory concentration of benzydamine)” value in assay [3] (MIC of benzydamine in presence of sub-MIC econazole / MIC of benzydamine alone) is reported as 0.25.
For the compound `Clc1ccc(COC(Cn2ccnc2)c2ccc(Cl)cc2Cl)cc1` (stereo not drawn) [Econazole nitrate], the MIC in the assay on C. albicans ATCC® 10231 (setting [4]) was 25 µg/mL; in the assay with C. tropicalis ATCC® 750 (setting [5]) it was 12.5 µg/mL; in assay [1], 25 µg/mL; in assay [2], 25 µg/mL; in assay [3] it was 1.56 µg/mL. Further, the “MIC in combination with benzydamine” value with C. albicans ATCC® 10231 was determined as 3.125 µg/mL; with C. tropicalis ATCC® 750, 1.56 µg/mL; in assay [1], 1.56 µg/mL; in assay [2], 12.5 µg/mL. Also, the “FIC[e] (fractional inhibitory concentration of econazole)” value in assay [3] (MIC of econazole in presence of sub-MIC benzydamine / MIC of econazole alone) is listed as 0.0628.
Regarding `Clc1ccc(COC(Cn2ccnc2)c2ccc(Cl)cc2Cl)c(Cl)c1` (stereo not drawn) [Miconazole nitrate], the MIC in the assay with C. albicans ATCC® 10231 (setting [4]) came out at 6.25 µg/mL; in the assay on C. tropicalis ATCC® 750 (setting [5]), 6.25 µg/mL; in assay [1] it was 25 µg/mL; in assay [2], 50 µg/mL. For the same compound, the “MIC in combination with benzydamine” value with C. albicans ATCC® 10231 turned out to be 1.56 µg/mL; with C. tropicalis ATCC® 750, 0.78 µg/mL; in assay [1], 0.78 µg/mL; in assay [2] it was 12.5 µg/mL.
Regarding Clotrimazole nitrate, the MIC worked out at 0.025 µg/mL with C. albicans ATCC® 10231 (active ingredient alone) and 6.25 µg/mL in the assay with C. tropicalis ATCC® 750 (active ingredient alone). Moreover, in the assay on C. tropicalis ATCC® 750, the “MIC in combination with benzydamine” value is 0.098 µg/mL.
For Fluconazole nitrate the same measures were 3.125 µg/mL, 50 µg/mL and 6.25 µg/mL.
